Patent US20230104487A1, “11-(4-CHLOROPHENYL)-4-(2,3-DIHYDRO-1H-INDOLE-1-CARBONYL)-3,11-DIMETHYL-5,10,DIOXATRICYCLO[7.4.0.0,2,6,]TRIDECA-1,3,6,8-TETRAEN-13-ONE AND DERIVATIVES AS DESTABILIZER OF CRY1 FOR THE TREATMENT OF CIRCADIAN RHYTHM ASSOCIATED DISEASES AND DISORDERS” (KOC UNIVERSITESI, priority 2019, published 2023)

Legend:
U2-OS cells = experiment: Cell cytotoxicity test (MTT); assay type: cell-based, human; settings: dose dependent
Procedure: Human osteosarcoma U2-OS cell lines were used for the cytotoxicity assay. Cells were seeded in triplicate to clear 96-well plates with 4000 cells/well then grown for 48 h. Cells were treated with molecules at desired concentrations (final DMSO concentration 0.5%) in DMEM. Cells were incubated with molecules for 48 h. Cell viability was measured by adding tetrazolium dye 3-[4,5-dimethylthiazol-2-yl]-2,5 diphenyl tetrazolium bromide (MTT) which is converted to insoluble purple color formazan as a result of the mitochondrial activity. To measure the purple color after incubating cells with MTT reagent medium was replaced with DMSO:EtOH (50:50) mixture for 4 hours and absorbance of wells were measured at 570 nm by the spectrophotometer. Cells treated with 5% final DMSO concentration (known as toxic to cells) as […] controls.
Initially, toxicity of selected molecules was assessed by MTT using immortalized human osteosarcoma (U2-OS) cells at concentrations of 20 μM, 10 μM and, 2.5 μM. Molecules with relative cell viability less than 90% at 2.5 μM were eliminated. […] In this assay the effect of the 14 molecules were measured according to the CRYL::LUC decay rate. […] Then cells were treated with cycloheximide (CHX) to inhibit the protein synthesis and bioluminescence was recorded for 18 h. […]

BMAL1 = BMAL1 mRNA and protein, synchronized U2-OS cells; assay type: cell-based, human; settings: 10 μM
Procedure: Cells were lysed in RIPA buffer (50 mM Tris, 150 mM NaCl, 1% Triton-X, 0.1% SDS) with fresh Protease inhibitor cocktail (PIC). After centrifugation at 13000 rpm for 15 minutes at 4° C., supernatant was used to determine the protein amount using Pierce Protein Assay (Thermo Scientific) according to the manufacturer's instruction. Mice liver samples were homogenized and lysed with Dounce homogenizer and RIPA buffer. After homogenization samples were incubated 10 minutes on ice. After centrifugation 13000 rpm 15 minutes at 4° C. supernatant was used for the whole cell lysate. Subcellular fractionation of liver samples: Liver samples were homogenized with cytosolic lysis buffer (10 mM HEPES pH 7.9, 10 mM KCl, 0.1 mM EDTA, 0.05% NP40, proteasome inhibitor) by pipetting 40 times with a cut tip. Then samples were incubated 10 minutes on ice and centrifuged for 3 minutes at 3000 rpm at 4° C. Supernatant was saved in a new tube, and pellet was processed for the nuclear fraction. […] ECL buffer system (Advansta WesternBright) was used to visualize HRP chemi-luminescence via BioRad ChemiDoc Touch visualizer.
QIAGEN RNeasy Mini Kit was used to isolate the mRNA. […] Quantity of RNA was determined by Nanodrop 2000 (Thermo Scientific). […] For quantitative real time PCR (qRT-PCR) analysis cDNAs were further diluted 5-fold (1:5). mRNA expression levels were calculated by qRT-PCR with the SYBR Green. […]

## Cc1c(C(=O)N2CCc3ccccc32)oc2ccc3c(c12)C(=O)CC(C)(c1ccc(Cl)cc1)O3 (centres unmarked) [FORMULA I, 11-(4-chlorophenyl)-4-(2,3-dihydro-1H-indole-1-carbonyl)-3,11-dimethyl-5,10,dioxatricyclo[7.4.0.0,2,6,]trideca-1,3,6,8-tetraen-13-one]
U2-OS cells
  toxicity on U2-OS cells: no effect on the stability of LUC and any toxic effect
BMAL1
  mRNA and protein levels of BMAL1: Decreased mRNA and protein levels of BMAL1
